Test results reported in patent publication US8624027B2, “Combination therapy for treating cancer and diagnostic assays for use therein” (AbbVie Inc., priority 2005, dated 2014).
Like-named read-outs stand apart in the source and are kept apart here.

Assays:
Bcl-2 protein = target: T1, Bcl-2 protein (Homo sapiens, UniProt P10415, DELINS35-91DVEENRTEAPEGTESE, form not given); test: Bcl-2 binding affinity, fluorescence polarization with fluorescein-labeled BAX peptide; conditions: Wang's equation, read-out: Target Binding Affinity Ki (Bcl-2)
T1 construct: fused on or other part: A short piece of the Bcl-xL (Q07817) loop replaces Bcl-2 loop residues 35-91; The C-terminal membrane anchor is absent
T1 sequence (P10415 with tags, fused parts or gaps with the stated changes): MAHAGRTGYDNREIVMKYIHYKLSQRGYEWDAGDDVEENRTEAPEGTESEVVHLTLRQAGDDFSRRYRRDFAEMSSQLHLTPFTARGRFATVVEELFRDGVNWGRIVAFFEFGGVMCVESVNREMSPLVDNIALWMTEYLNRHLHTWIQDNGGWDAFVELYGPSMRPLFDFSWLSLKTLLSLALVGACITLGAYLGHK

[1] = Pharmacokinetic evaluation in rat; format: in vivo; conditions: male, Sprague-Dawley, plasma; for AUC(0-inf): single 5 mg/kg oral dose, Table 1, read-out: Pharmacokinetic area under the plasma concentration Curve (rat) AUC0-∞; for AUC / Cmax: 5 mg/kg, oral
Outline: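 Male Sprague-Dawley rats (n=3/group) received a single 2 mg/kg IV (jugular slow bolus) or 5 mg/kg oral gavage dose in 10% DMSO/PEG-400; tail-vein plasma sampled to 24 h. Acetonitrile-precipitated plasma quantified by LC-MS/MS (LOQ 0.01 μg/mL); AUC0-∞ by linear trapezoidal rule plus Ct/β extrapolation.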

[2] = test system: NCI-H146 human small cell lung carcinoma cells; test: Cellular efficacy in human tumor cell line (MTS viability assay); format: cell-based; conditions: NCI-H146, 10% human serum, 48 hours
Outline: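 Cells plated at 50,000/well in medium with 10% human serum in place of FBS. Treated with 2-fold serial dilutions from 10 μM to 0.020 μM, in duplicate, at least 3 separate runs. Viable cells measured by MTS after 48 h of compound exposure.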

Bcl-XL protein = Bcl-XL protein (Homo sapiens, UniProt Q07817); test: Bcl-XL binding affinity, fluorescence polarization with fluorescein-labeled BAD peptide; conditions: Wang's equation, read-out: Target Binding Affinity Ki (Bcl-XL)
Sequence of Bcl-XL protein (Q07817 with tags, fused parts or gaps DEL45-84): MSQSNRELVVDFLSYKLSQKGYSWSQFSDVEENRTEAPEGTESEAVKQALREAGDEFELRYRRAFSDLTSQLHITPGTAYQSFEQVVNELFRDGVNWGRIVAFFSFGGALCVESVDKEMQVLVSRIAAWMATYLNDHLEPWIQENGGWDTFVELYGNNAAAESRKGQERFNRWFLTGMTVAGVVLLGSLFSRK

[3] = Table 1, read-out: NCI-H146 Cellular Efficacy EC50
[4] = Table 3, read-out: Pharmacokinetic area under the plasma concentration Curve (rat) AUC
[5] = Table 3, read-out: Pharmacokinetic peak plasma concentration (rat) Cmax
[6] = Table 3, read-out: NCI-H146 Cellular Efficacy H146 EC50

| SMILES | Ki (Bcl-2 protein) [nM] | AUC(0-inf) [1] [µM·h] | EC50 [2, 3] [nM] | Ki (Bcl-XL protein) [nM] | AUC [1, 4] [µM·h] | Cmax [1, 5] [nM] | EC50 [2, 6] [nM] | AUC ([1]; Table 2, read-out: Pharmacokinetic area under the plasma concentration curve (rat) AUC) [µM·h] | Cmax ([1]; Table 2, read-out: Pharmacokinetic peak plasma concentration (rat) Cmax) [nM] | EC50 ([2]; Table 2, read-out: NCI-H146 Cellular Efficacy H146, EC50) [nM] |
| --- | --- | --- | --- | --- | --- | --- | --- | --- | --- | --- |
| CC1(C)CCC(CN2CCN(c3ccc(C(=O)NS(=O)(=O)c4ccc(N[C@H](CCN5C[C@@H]6C[C@H]5CO6)CSc5ccccc5)c(S(=O)(=O)C(F)(F)Cl)c4)cc3)CC2)=C(c2ccc(Cl)cc2)C1 [Example 25, 3-((chloro(difluoro)methyl)sulfonyl)-N-(4-(4-((2-(4-chlorophenyl)-4,4-dimethylcyclohex-1-en-1-yl)methyl)piperazin-1-yl)benzoyl)-4-(((1R)-3-((1S,4S)-2-oxa-5-azabicyclo[2.2.1]hept-5-yl)-1-((phenylsulfanyl)methyl)propyl)amino)benzenesulfonamide] | ≤ 1 | 1.67 | 16.4 | ≤ 1 |  |  |  |  |  |  |
| CN(C)CC[C@H](CSc1ccccc1)Nc1ccc(S(=O)(=O)NC(=O)c2ccc(N3CCN(CC4=C(c5ccc(Cl)cc5)CCCC4)CC3)cc2)cc1S(=O)(=O)C(F)(F)F [Example 26, N-(4-(4-((2-(4-chlorophenyl)cyclohex-1-en-1-yl)methyl)piperazin-1-yl)benzoyl)-4-(((1R)-3-(dimethylamino)-1-((phenylsulfanyl)methyl)propyl)amino)-3-((trifluoromethyl)sulfonyl)benzenesulfonamide] | ≤ 1 | 0.8 | 24.3 | ≤ 1 | 0.803 | 97 | 24 |  |  |  |
| O=C(NS(=O)(=O)c1ccc(N[C@H](CCN2CCCC2)CSc2ccccc2)c(S(=O)(=O)C(F)(F)F)c1)c1ccc(N2CCN(CC3=C(c4ccc(Cl)cc4)CCCC3)CC2)cc1 [Example 27, N-(4-(4-((2-(4-chlorophenyl)cyclohex-1-en-1-yl)methyl)piperazin-1-yl)benzoyl)-4-(((1R)-1-((phenylsulfanyl)methyl)-3-(pyrrolidin-1-yl)propyl)amino)-3-((trifluoromethyl)sulfonyl)benzenesulfonamide] | ≤ 1 | 2.08 | 18.5 | ≤ 1 |  |  |  |  |  |  |
| O=C(NS(=O)(=O)c1ccc(N[C@H](CCN2CCCC2)CSc2ccccc2)c(S(=O)(=O)C(F)(F)F)c1)c1ccc(N2CCN(CC3=C(c4ccc(Cl)cc4)CCCCC3)CC2)cc1 [Example 29, N-(4-(4-((2-(4-chlorophenyl)cyclohept-1-en-1-yl)methyl)piperazin-1-yl)benzoyl)-4-(((1R)-1-((phenylsulfanyl)methyl)-3-(pyrrolidin-1-yl)propyl)amino)-3-((trifluoromethyl)sulfonyl)benzenesulfonamide] | ≤ 1 | 1.74 | 29.8 | ≤ 1 |  |  |  |  |  |  |
| CC1(C)CCC(c2ccc(Cl)cc2)=C(CN2CCN(c3ccc(C(=O)NS(=O)(=O)c4ccc(N[C@H](CCN5CCCC5)CSc5ccccc5)c(S(=O)(=O)C(F)(F)Cl)c4)cc3)CC2)C1 [Example 30, 3-((chloro(difluoro)methyl)sulfonyl)-N-(4-(4-((2-(4-chlorophenyl)-5,5-dimethylcyclohex-1-en-1-yl)methyl)piperazin-1-yl)benzoyl)-4-(((1R)-1-((phenylsulfanyl)methyl)-3-(pyrrolidin-1-yl)propyl)amino)benzenesulfonamide] | ≤ 1 | 3.39 | 31.7 | ≤ 1 |  |  |  |  |  |  |
| CC1(C)CCC(CN2CCN(c3ccc(C(=O)NS(=O)(=O)c4ccc(N[C@H](CCN5CCCC5)CSc5ccccc5)c(S(=O)(=O)C(F)(F)Cl)c4)cc3)CC2)=C(c2ccc(Cl)cc2)C1 [Example 31, 3-((chloro(difluoro)methyl)sulfonyl)-N-(4-(4-((2-(4-chlorophenyl)-4,4-dimethylcyclohex-1-en-1-yl)methyl)piperazin-1-yl)benzoyl)-4-(((1R)-1-((phenylsulfanyl)methyl)-3-(pyrrolidin-1-yl)propyl)amino)benzenesulfonamide] | ≤ 1 | 5.1 | 13 | ≤ 1 |  |  |  |  |  |  |
| O=C(NS(=O)(=O)c1ccc(N[C@H](CCN2CCCC2)CSc2ccccc2)c(S(=O)(=O)C(F)(F)Cl)c1)c1ccc(N2CCN(CC3=C(c4ccc(Cl)cc4)CCCCC3)CC2)cc1 [Example 32, 3-((chloro(difluoro)methyl)sulfonyl)-N-(4-(4-((2-(4-chlorophenyl)cyclohept-1-en-1-yl)methyl)piperazin-1-yl)benzoyl)-4-(((1R)-1-((phenylsulfanyl)methyl)-3-(pyrrolidin-1-yl)propyl)amino)benzenesulfonamide] | ≤ 1 | 1.38 | 18.7 | ≤ 1 |  |  |  |  |  |  |
| CC(C)N(C)CC[C@H](CSc1ccccc1)Nc1ccc(S(=O)(=O)NC(=O)c2ccc(N3CCN(CC4=C(c5ccc(Cl)cc5)CCCC4)CC3)cc2)cc1S(=O)(=O)C(F)(F)F [Example 33, N-(4-(4-((2-(4-chlorophenyl)cyclohex-1-en-1-yl)methyl)piperazin-1-yl)benzoyl)-4-(((1R)-3-(isopropyl(methyl)amino)-1-((phenylsulfanyl)methyl)propyl)amino)-3-((trifluoromethyl)sulfonyl)benzenesulfonamide] | ≤ 1 | 3.01 | 37.8 | ≤ 1 | 3.01 | 129 | 38 |  |  |  |

Other lines, results leading:

| Ki (Bcl-2 protein) [nM] | AUC(0-inf) [1] [µM·h] | EC50 [2, 3] [nM] | Ki (Bcl-XL protein) [nM] | AUC [1, 4] [µM·h] | Cmax [1, 5] [nM] | EC50 [2, 6] [nM] | AUC ([1]; Table 2, read-out: Pharmacokinetic area under the plasma concentration curve (rat) AUC) [µM·h] | Cmax ([1]; Table 2, read-out: Pharmacokinetic peak plasma concentration (rat) Cmax) [nM] | EC50 ([2]; Table 2, read-out: NCI-H146 Cellular Efficacy H146, EC50) [nM] | SMILES |
| --- | --- | --- | --- | --- | --- | --- | --- | --- | --- | --- |
| ≤ 1 | 11.1 | 20 | ≤ 1 |  |  |  |  |  |  | CC1(C)CCC(CN2CCN(c3ccc(C(=O)NS(=O)(=O)c4ccc(N[C@H](CCN5CCCC5)CSc5ccccc5)c(S(=O)(=O)C(F)(F)F)c4)cc3)CC2)=C(c2ccc(Cl)cc2)C1 [Example 34, N-(4-(4-((2-(4-chlorophenyl)-4,4-dimethylcyclohex-1-en-1-yl)methyl)piperazin-1-yl)benzoyl)-4-(((1R)-1-((phenylsulfanyl)methyl)-3-(pyrrolidin-1-yl)propyl)amino)-3-((trifluoromethyl)sulfonyl)benzenesulfonamide] |
| ≤ 1 | 1.26 | 7.6 | ≤ 1 |  |  |  |  |  |  | O=C(NS(=O)(=O)c1ccc(N[C@H](CCN2CCCC2)CSc2ccccc2)c(S(=O)(=O)C(F)(F)Cl)c1)c1ccc(N2CCN(CC3=C(c4ccc(Cl)cc4)CCCC3)CC2)cc1 [Example 35, 3-((chloro(difluoro)methyl)sulfonyl)-N-(4-(4-((2-(4-chlorophenyl)cyclohex-1-en-1-yl)methyl)piperazin-1-yl)benzoyl)-4-(((1R)-1-((phenylsulfanyl)methyl)-3-(pyrrolidin-1-yl)propyl)amino)benzenesulfonamide] |
| ≤ 1 | 4.22 | 24.2 | ≤ 1 |  |  |  |  |  |  | CC1(C)CCC(CN2CCN(c3ccc(C(=O)NS(=O)(=O)c4ccc(N[C@H](CCN5C[C@@H]6C[C@H]5CO6)CSc5ccccc5)c(S(=O)(=O)C(F)(F)F)c4)cc3)CC2)=C(c2ccc(Cl)cc2)C1 [Example 36, N-(4-(4-((2-(4-chlorophenyl)-4,4-dimethylcyclohex-1-en-1-yl)methyl)piperazin-1-yl)benzoyl)-4-(((1R)-3-((1S,4S)-2-oxa-5-azabicyclo[2.2.1]hept-5-yl)-1-((phenylsulfanyl)methyl)propyl)amino)-3-((trifluoromethyl)sulfonyl)benzenesulfonamide] |
| ≤ 1 | 7.3 | 17.5 | ≤ 1 |  |  |  |  |  |  | CN(C)CC[C@H](CSc1ccccc1)Nc1ccc(S(=O)(=O)NC(=O)c2ccc(N3CCN(CC4=C(c5ccc(Cl)cc5)CC(C)(C)CC4)CC3)cc2)cc1S(=O)(=O)C(F)(F)F [Example 37, N-(4-(4-((2-(4-chlorophenyl)-4,4-dimethylcyclohex-1-en-1-yl)methyl)piperazin-1-yl)benzoyl)-4-(((1R)-3-(dimethylamino)-1-((phenylsulfanyl)methyl)propyl)amino)-3-((trifluoromethyl)sulfonyl)benzenesulfonamide] |
| ≤ 1 | 0.67 | 39.4 | ≤ 1 |  |  |  | 0.665 | 72 | 39 | CN(C)CC[C@H](CSc1ccccc1)Nc1ccc(S(=O)(=O)NC(=O)c2ccc(N3CCN(Cc4ccccc4-c4ccc(Cl)cc4)CC3)cc2)cc1S(=O)(=O)C(F)(F)F [Example 38, N-(4-(4-((4′-chloro(1,1′-biphenyl)-2-yl)methyl)-1-piperazinyl)benzoyl)-4-(((1R)-3-(dimethylamino)-1-((phenylsulfanyl)methyl)propyl)amino)-3-((trifluoromethyl)sulfonyl)benzenesulfonamide] |
